Measured values taken from patent US8586632B2, “Use of the irritating principal oleocanthal in olive oil, as well as structurally and functionally similar compounds” (Monell Chemical Senses Center, priority 2007, dated 2013).

Columns and labels:
[1] = system: cultured rat trigeminal neurons; assay: Intracellular calcium level in cultured rat trigeminal neurons (ratiometric Fura2 imaging); assay type: cell-based; parameters: key to TG Neuron Activation: The highest scale (+++) was assigned to the analogs that had approximately the same magnitude of response and excited the same number of neurons as oleocanthal; ++ responses were assigned to analogs that elicited intermediate responses to an intermediated number of cells; The + responses were weak but detectable and were observed in very few cells; No detectable response is indicated by 0; conditions: for TG Neuron Activation: single concentration 5 micromolar, response relative to oleocanthal; for number of trigeminal neurons responding, as % of the response to oleocanthal: 5 micromolar oleocanthal = 100%; for intracellular calcium response in trigeminal neurons (in words): cultured rat trigeminal neurons
Protocol: Activity of synthetic oleocanthal analogs was assessed by measurement of the intracellular calcium level in cultured rat trigeminal neurons. Flavor or taste perception is made up of the sensory experience of three chemical senses: taste, smell, and chemical-induced irritation or pain. This third component is mainly determined by the impact of chemical stimuli that are transmitted to the brain via the trigeminal nerve.
Trigeminal ganglia were harvested from 1-3 day old Sprague-Dawley rat pups. Neurons were dissociated in Hanks Buffered Saline Solution (HBSS) with trypsin (0.0625%) for 15 minutes, collagenase (1 mg/ml) and DNase (0.1 mg/ml) for 45 minutes, and then were separated from myelin/debris using a 15/30/60% Percoll gradient. The neurons were plated on poly-1-lysine/laminin-coated coverslips in modified neurobasal medium supplemented with B27, 100 ng/ml Nerve Growth Factor (NGF) and kept at 37° C., 5% CO2. […] Intracellular calcium was measured ratiometrically using excitation at 340 and 380 nm and emission at 510 nm. Experiments were performed at 31-32° C. Neurons were stimulated by compounds in Ringers solution (pH=7.34) that flowed over the neurons for 15 sec.
Synthetic (−)oleocanthal and related analogs were dissolved in absolute ethanol and then added to Ringer's solution adjusted at pH=7.34 with a final ethanol concentration of less than 0.1%. The octanol-water partition coefficient (Log P), expressing compound lipophilicity, was calculated based on chemical structure with the Interactive Analysis Log P predictor website. In general, the higher the log P number, the greater the lipophilicity, and the greater the tendency of the compound to partition into the lipid phase of the cell membranes.
Oleocanthal activates rat trigeminal neurons; 5 microM of the olive oil irritant elicits a robust intracellular calcium increase in about 25 to about 35% of cultured rat trigeminal neurons (FIG. 6). Therefore, to assess the irritation potency of oleocanthal analogs and in order to avoid human consumption of unnatural compounds, activity was determined by measurement of the intracellular calcium level in cultured rat trigeminal neurons. […] Thus, both aldehyde groups, as well as unsaturation, are required to maintain full activity. […] Analog 11 is of particular interest. Like oleocanthal, analog 11 (or 4-DHPEA-EDA) is a secoiridoid derivative naturally present in extra virgin olive oil. Oleocanthal and 4-DHPEA-EDA formation occurs during olive oil production by enzymatic and chemical degradation of their respective precursors ligstroside and oleuropein, two glucosylated secoiridoids abundantly synthesized in unripe olives (FIG. 9). Oleocanthal and 4-DHPEA-EDA are structurally very similar—the sole difference being a second phenolic hydroxyl group in 4-DHPEA-EDA. […] For the experiment illustrated in FIG. 8, analog 13 (5, 10, 20 and 50 micomolar) was applied on a separate coverslip containing trigeminal neurons and activation was determined. This was followed by application of 5 micromolar oleocanthal to the same four coverslips. For each coverslip, the number of trigeminal neurons responding to oleocanthal was determined and defined as 100%. The number of trigeminal neurons responding to analog 13 corresponded to approximately 6% (5 micromolar analog 13), 25% (10 micromolar analog 13), 45% (20 micromolar analog 13) and 96% (50 micromolar analog 13) of the response to oleocanthal. For each coverslip, 18-20 trigeminal neurons were sensitive to oleocanthal. […] Analog 13 is very close in structure to oleocanthal (Table 2), lacking only a single carbon. […] While not wishing to be bound by any one theory, it is believed that the shorter chain of analog 13 pulls the rigid ring forward creating a steric obstruction to efficacious binding with the receptor.

oral irritation = conditions: reported, Anke et al. 1991; cited from earlier work
throat = assay: Throat irritation sensory test of synthetic oleocanthal in corn oil (two-alternative forced-choice); assay type: in vivo, human; conditions: for correct trials, 2AFC throat irritation: ten subjects
Protocol: Testing was double-blind and each was exposed to three sets of two samples, one of which was added synthesized oleocanthal and the other served as the blank control. The task was to indicated which of the pair was more irritating. […] Importantly, the effect was dose dependent (FIG. 2 open triangles, dashed line). Ten subjects were tested with non-irritating commercial corn oils presented neat and mixed with either synthesized (−)-oleocanthal or the bitter agent sucrose octaacetate (SOA) (Sigma-Aldrich). […] (−)-Oleocanthal was tested at the highest concentration identified in the ten rated oils, 200 μg/ml, and at one half and whole log steps more dilute 63.25 and 20 μg/ml. SOA was added to the corn oil (4×10^−4, 1×10^−4, 5×10^−5 M) to intensity match the irritation of the three levels of (−)-oleocanthal. Subjects participated in two-alternative forced-choice (2AFC) trials (four trials at every concentration for each subject) and in intensity ratings sessions (four ratings per each oil). For the 2AFC trials subjects were presented with two 3.0 ml corn oil samples with matching intensities of SOA and (−)-oleocanthal in ascending order, and were required to sample oils as described above. While blind to stimulus position, subjects were asked two questions on each trial, “Which of the two oils was more irritating in the throat?” and “Which one was more bitter?” At the 20 μg/ml & 5×10^−5 M level most subjects reported on some trials that the same oil was both the more irritating and the more bitter of the two. […] Subjects performed at chance when selecting among two unadulterated corn oils, when the correct choice was randomly assigned prior to testing. […] The other two concentrations were correct 39/40 and 40/40 trials. For the intensity rating trials subjects were presented with all eight oils in ascending order, counterbalanced for stimulus order and asked to rate the throat irritation and bitterness of every oil on a general labeled magnitude scale.

C/C=C(/C=O)[C@@H](CC=O)CC(=O)OCCc1ccccc1O [Analog 3]
TG Neuron Activation [1]: +++

C/C=C(/C=O)[C@@H](CC=O)CC(=O)OCc1ccc(O)cc1 [Analog 13]
number of trigeminal neurons responding, as % of the response to oleocanthal ([1]; 5 micromolar analog 13): approximately 6% | number of trigeminal neurons responding, as % of the response to oleocanthal ([1]; 10 micromolar analog 13): about 25% | number of trigeminal neurons responding, as % of the response to oleocanthal ([1]; 20 micromolar analog 13): ~45% | number of trigeminal neurons responding, as % of the response to oleocanthal ([1]; 50 micromolar analog 13): ~96% | intracellular calcium response in trigeminal neurons (in words) [1]: small responses | TG Neuron Activation [1]: + | multiple of concentration needed to reach the potency of oleocanthal ([1]; trigeminal neuron stimulation, FIG. 8): approximately 10 times

C/C=C(/C=O)[C@@H](CC=O)CC(=O)OCCCc1ccc(O)cc1 [Analog 8]
TG Neuron Activation [1]: +++

C/C=C(/C=O)[C@@H](CC=O)CC(=O)OCCc1ccccc1 [Analog 1]
TG Neuron Activation [1]: +++

C/C=C1\[C@H](CC(=O)OCCc2ccc(O)cc2)C[C@@H](O)[C@H]1O [Analog 5]
intracellular calcium response in trigeminal neurons (in words) [1]: did not elicit intracellular calcium increase | TG Neuron Activation [1]: 0

C/C=C(/C=O)[C@@H](CC=O)CC(=O)OCCc1ccc(O)c(O)c1 [Analog 11, 4-DHPEA-EDA]
TG Neuron Activation [1]: +++ | oral irritation (in words) (oral irritation): very little oral irritation

C/C=C(/C=O)[C@@H](CC=O)CC(=O)OCCCCC [Analog 7]
TG Neuron Activation [1]: +++

CC[C@@H](C=O)[C@@H](CC=O)CC(=O)OCCc1ccc(O)cc1 [Analog 12]
intracellular calcium response in trigeminal neurons (in words) [1]: did not elicit intracellular calcium increase | TG Neuron Activation [1]: 0

C/C=C(/C=O)[C@@H](CC=O)CC(=O)OCCc1ccc(F)cc1 [Analog 2]
TG Neuron Activation [1]: +++

C/C=C(/C=O)[C@@H](CCO)CC(=O)OCCc1ccc(O)cc1 [Analog 9]
intracellular calcium response in trigeminal neurons (in words) [1]: did not elicit intracellular calcium increase | TG Neuron Activation [1]: +

C/C=C(/CO)[C@@H](CCO)CC(=O)OCCc1ccc(O)cc1 [Analog 10]
intracellular calcium response in trigeminal neurons (in words) [1]: did not elicit intracellular calcium increase | TG Neuron Activation [1]: 0

C/C=C(/C=O)[C@@H](CC=O)CC(=O)OCCc1cccc(O)c1 [Analog 4]
TG Neuron Activation [1]: +++

C/C=C(/C=O)[C@@H](CC=O)CC(=O)OCCc1ccc(O)cc1 [Oleocanthal (−), 2-(4-hydroxyphenyl)ethyl, 4-formyl-3-(2-oxoethyl)-4-hexenoic acid ester]
TG Neuron Activation [1]: +++ | correct trials, 2AFC throat irritation (throat; 20 μg/ml in corn oil vs intensity-matched SOA): 24 out of 40 | correct trials, 2AFC throat irritation (throat; 63.25 μg/ml in corn oil vs intensity-matched SOA): 39/40 | correct trials, 2AFC throat irritation (throat; 200 μg/ml in corn oil vs intensity-matched SOA): 40/40 | throat irritation (in words) (throat; synthetic compound in corn oil): identical to oleocanthal isolated from premium olive oil | correct identification of the more irritating sample (2AFC) (throat; three evaluators, three presentations each, corn oil, approx. twice the concentration in Falconaro olive oil, vs blank, p<0.01): 9 of 9 | concentration near detection threshold levels in corn oil (throat; throat irritation, 2AFC): ~20 µg/mL

C/C=C(/C=O)[C@@H](CC=O)CC(=O)OC [Analog 6]
TG Neuron Activation [1]: ++
